The microsomal CLint is the rate of metabolic loss divided by the concentration. High values mean faster metabolism, low ones greater metabolic stability.

The text below walks through data of paper PMC10454396 (International Journal of Molecular Sciences, 2023).

Series [1] can be described thus: Plasma protein binding (RED), human plasma. In kind it is in vitro ADME. The following applies: pooled plasma, pH 7.4, human plasma. As to the method: Plasma protein binding was determined using the Rapid Equilibrium Dialysis (RED) system (Thermo Fisher Scientific, Waltham, MA, USA). The compound was diluted in pooled murine (CD-1)/human or Wistar rat plasma (Neo Biotech, Nanterre, France) to 10 µM and added to the respective chamber according to the manufacturer’s protocol, followed by addition of PBS pH 7.4 to the opposite chamber. Samples were taken immediately after addition to the plate as well as after 2, 4 and 5 h by mixing 10 µL with 80 µL ice-cold acetonitrile containing 12.5 nM diphenhydramine as internal standard, followed by addition of 10 µL plasma to samples taken from PBS and vice versa. Samples were stored on ice until the end of the incubation and precipitated protein was removed by centrifugation (15 min, 4 °C, 4000× g, 2 centrifugation steps). Concentration of the remaining test compound at the different time points was analyzed by HPLC-MS/MS (TSQ Altis Plus, Thermo Fisher, Dreieich, Germany). The amount of compound bound to protein was calculated using the equation PPB [%] = 100 − 100 × (amount in buffer chamber/amount in plasma chamber).

The subject of series [2] is mCherry-expressing S. aureus Newman. The series is described as follows: Zebrafish embryo model of S. aureus yolk infection, antibiotic treatment efficacy. The series is classed as in vivo, Staphylococcus aureus. On the procedure:
With the aim to study the in vivo efficacy of drugs, 30 hpf zebrafish embryos were infected with 50 CFU of mCherry-expressing S. aureus Newman. Embryos were then left to recover from injection for two hours and subsequently treated with various reference antibiotics. Antibiotic treatment was performed via bath water immersion as well as via microinjection into the yolk (local treatment) and the caudal vein (systemic treatment) to study whether differences in in vivo activity exist between the three administration routes. Survival was assessed daily until 120 hpf. Additionally, the infection was visualized and quantified by means of fluorescence microscopy at 24 h post treatment (hpt). At the end of every experiment, living embryos (and dead embryos, if possible) were homogenized to determine the remaining bacterial count. Five approved antibiotics from different classes were assessed in vivo. The chosen drugs ought to differ in physicochemical properties, such as molecular weight and polarity, in order to detect a pattern between successful administration routes and the physicochemical properties of the drug. Prior to efficacy assessment, drug-mediated toxicity in zebrafish embryos was investigated using the same administration routes (Figure S3). For microinjection, a fixed dose of 20 to 30 mg/kg was used for each antibiotic. The concentration for bath water immersion was based on the minimum inhibitory concentration (MIC) and the maximum tolerated concentration (MTC) of the drug, whereby it is generally recommended to use 50- to 100-fold the antibacterial MIC to see a positive effect.
Pulled glass capillaries for microinjection (Table S2) were prepared using a micropipette puller (P-1000, Sutter Instrument). Dechorionated and anaesthetized embryos were infected with 50 colony-forming units (CFU) of mCherry-expressing S. aureus Newman by microinjection into the yolk sac at 30 hpf. In order to confirm bacterial numbers, an equal volume of bacterial cells was ejected onto Tryptic Soy Agar (TSA) supplemented with 10 µg/mL chloramphenicol before and after the injection. Antibiotic treatment was performed two hours post infection (hpi) via three different administration routes, namely bath water immersion and microinjection into the yolk sac as well as the caudal vein (CV). The infection procedure and treatment of infected embryos are described in details in the supplementary materials (Table S3).
Embryos were transferred individually to microcentrifuge tubes and washed at least three times with sterile PBS. 200 µL of sterile PBS were added and embryos were mechanically homogenized using a micropestle (Carl Roth, Karlsruhe, Germany). 800 µL of sterile PBS were added to reach a final volume of 1 mL. The homogenates were diluted and plated on tryptic soy agar (TSA). CFU counts were determined after 24 h of incubation at 37 °C.
Embryos were placed in a black 96-well plate (Falcon; Thermo Fisher, Dreieich, Germany) and cryo-anaesthetized by submersion into ice water. Images for quantitative fluorescence analysis were acquired using the following equipment: a fluorescence stereo microscope (M205 FA, Leica Microsystems, Wetzlar, Germany) in combination with a fluorescence illuminator (X-Cite, 200DC, Excelitas Technologies, Waltham, MA, USA) and a microscope camera (DFC7000 T, Leica Microsystems). Quantification of fluorescence was performed using Fiji ImageJ version 2.1.0. Fluorescent Integrated Density (FID) was determined by counting the number of pixels with fluorescence intensity greater than the threshold (10) and multiplying the count with its mean intensity. For confocal imaging, embryos were anaesthetized through immersion in tricaine (945 µM, Sigma-Aldrich) and immobilized in 1.2% low-melting agarose in a flat-bottom 96-well plate. Confocal images and time-lapse series were acquired using the Celldiscoverer 7 with LSM 900 (Zeiss) together with the 5×/0.35 Plan-APOCHROMAT objective.
2. […]

Series [3] is described as follows: Phase I metabolic stability, human liver microsomes. The series is classed as in vitro ADME. As to conditions: pH 7.4. On the procedure: For the evaluation of phase I metabolic stability, the compound (1 µM) was incubated with 0.5 mg/mL pooled mouse/rat liver microsomes (Xenotech, Kansas City, MO, USA) or human liver microsomes (Corning, NY, USA), 2 mM NADPH and 10 mM MgCl2 at pH 7.4 for 120 min at 37 °C. The metabolic stability of testosterone, verapamil and ketoconazole were determined in parallel to confirm the enzymatic activity of mouse/rat liver microsomes; for human liver microsomes testosterone, diclofenac and propranolol were used. The incubation was stopped after defined time points by precipitation of aliquots of the assay mixture with two volumes of ice-cold acetonitrile containing internal standard (15 nM diphenhydramine). Samples were stored on ice until the end of the incubation and precipitated protein was removed by centrifugation (15 min, 4 °C, 4000× g).
On the technique in general: Liver microsomes are vesicles of endoplasmic reticulum, rich in cytochrome P450 enzymes.

Where two headings read alike, the source gives them in different places. Where only a bound is given, the exact number is not on record here.

Turning to `C/C(=C\[C@H](C)CCCCC(=O)O)[C@@H]1O[C@@H]2C=C[C@H]1OC(=O)\C=C/C=C\C=C\[C@H]1O[C@@H]3C[C@H]1O[C@@H](/C=C/C[C@H]1O[C@H](C[C@H](O)[C@H]1C)[C@@H](O)[C@@H](O)/C=C/CC/C=C/C2)[C@@H]3C` [sorangicin A], the fraction unbound at 10 µM in series [1] (10 µM, read-out: PPB (converted)) was 0.13; in series [1] (read-out: free fraction) it was above 0.1. Also, the “effect on survival of infected embryos” value in series [2] (bath water immersion 50-100x MIC) was “did not show any protective effect”; in series [2] (caudal vein microinjection 20-30 mg/kg, 2 hpi) it was “significantly extended the lifespan”; in series [2] (yolk microinjection 20-30 mg/kg, 2 hpi), “significantly increased the survival rate”. Further, in series [2] (bath water supplemented with 1000x MIC), the “difference between treated and untreated embryos” value was “no difference”. The “bacterial fluorescence (FID) at 24 hpt” value in series [2] (caudal vein microinjection) was “Bacterial fluorescence was suppressed”; in series [2] (yolk microinjection), “reduced bacterial burden”. For the same compound, the “embryos succumbed to the infection” value in series [2] (caudal vein microinjection 2 hpi, 50 CFU yolk infection) was found to be 75%. Moreover, the bacterial numbers entry in series [2] (caudal vein microinjection, succumbed embryos) is listed as “exceeding 10^4 CFU/embryo”. Besides, the “bacteria recovered (CFU plating) at 120 hpf” value in series [2] (yolk microinjection) is on record as “complete eradication of bacteria”. Also, in series [3], the microsomal CLint at 1 µM stood at 90.4 ± 16.5 µL/min/mg.
